From patent publication US11464770B2, “Anticancer pharmaceutical composition” (NATIONAL CANCER CENTER, priority 2016, dated 2022)
Read-outs that look alike come from different tables or passages of the source.

Tests used:
[1] = tested on: breast cancer cell lines (e.g. MDA-MB-231, SK-BR-3, MDA-MB-468, HCC1954); assay: Cell based assay, cell viability (CellTiter-Glo), breast cancer cell lines; settings: 72 hours, CellTiter-Glo
Experimental: (§1) Commercially available bladder cancer, prostate cancer, lung cancer, breast cancer, blood cancer, pancreatic cancer, colorectal cancer, brain cancer, neuroblastoma, melanoma, liver cancer, cervical carcinoma, ovarian cancer, renal cancer, and papilloma cell lines were each treated with trypsin-EDTA and cultured, followed by being seeded in each well of a 96 well plate. After 24 hours of treatment at constant temperature, the respective cells were treated with the candidate compound so that a final concentration became 0 to 2 μM. The treated cells were additionally cultured for 72 hours, and cell viability was measured by using an ATP detection method (CellTiter-Glo® Luminescent Cell Viability Assay, Promega).

[2] = tested on: cervical carcinoma cell lines; assay: Cell based assay, cell viability (CellTiter-Glo), cervical carcinoma cell lines; settings: Homo sapiens; HeLa cells
Experimental: as §1, with “After 24 hours of treatment at constant temperature, the respective cells were treated with the candidate compound so that a final concentration became 0 to 2 μM.” left out

[3] = tested on: renal cancer cell lines; assay: Cell based assay, cell viability (CellTiter-Glo), renal cancer cell lines; settings: Homo sapiens; ACHN cells
Experimental: as §1

[4] = Breast cancer cell line MDA-MB-231-L/DOX, read-out: IC50, MDA-MB-231-L/DOX
[5] = Homo sapiens, Breast cancer cell line BT-20, read-out: IC50, BT-20
[6] = Homo sapiens, Breast cancer cell line HCC1395, read-out: IC50, HCC1395
[7] = Homo sapiens, Breast cancer cell line HCC1954, read-out: IC50, HCC1954
[8] = Homo sapiens, Breast cancer cell line JIMT-1, read-out: IC50, JIMT-1
[9] = Homo sapiens, Breast cancer cell line MCF7, read-out: IC50, MCF7
[10] = Homo sapiens, Breast cancer cell line MDA-MB-231, read-out: IC50, MDA-MB-231
[11] = Homo sapiens, Breast cancer cell line MDA-MB-468, read-out: IC50, MDA-MB-468
[12] = Homo sapiens, Breast cancer cell line SK-BR-3, read-out: IC50, SK-BR-3

Compound	IC50 [1, 4] [nM]	IC50 [1, 5] [nM]	IC50 [1, 6] [nM]	IC50 [1, 7] [nM]	IC50 [1, 8] [nM]	IC50 [1, 9] [nM]	IC50 [1, 10] [nM]	IC50 [1, 11] [nM]	IC50 [1, 12] [nM]	IC50 [2] [µM]	IC50 [3] [nM]
CC(=O)c1c(SCc2cc(F)cc(F)c2)[nH]c2c(Br)ccc(Cl)c2c1=O [Compound 45, 3-acetyl-8-bromo-5-chloro-2-((3,5-difluorobenzyl)thio)quinolin-4(1H)-one]	> 2000	> 2000	> 10000	> 2000	> 10000	> 2000	> 2000	> 2000	> 2000	> 10	> 2000
CC(=O)c1c(SCc2cccc(I)c2)[nH]c2c(Br)ccc(Cl)c2c1=O [Compound 47, 3-acetyl-8-bromo-5-chloro-2-((3-iodobenzyl)thio)quinolin-4(1H)-one]	> 2000	> 2000	> 10000	> 2000	> 10000	> 2000	> 2000	> 2000	> 2000	> 10	> 2000
CC(=O)c1c([S+]([O-])Cc2cccc(I)c2)[nH]c2c(Br)ccc(Cl)c2c1=O (stereo not shown) [Compound 48, 3-acetyl-8-bromo-5-chloro-2-((3-iodobenzyl)sulfinyl)quinolin-4(1H)-one]	> 2000	> 2000	> 10000	> 2000	> 10000	> 2000	> 2000	> 2000	> 2000	> 10	> 2000
CC(=O)c1c(SCc2cccc(F)c2)[nH]c2c(Br)ccc(Cl)c2c1=O [Compound 49, 3-acetyl-8-bromo-5-chloro-2-((3-fluorobenzyl)thio)quinolin-4(1H)-one]	> 2000	> 2000	> 10000	> 2000	> 10000	> 2000	> 2000	> 2000	> 2000	> 10	> 2000
CC(=O)c1c(SCc2ccccc2)nc2c(Br)ccc(Cl)c2c1O [Compound 52, 1-(2-(benzylthio)-8-bromo-5-chloro-4-hydroxyquinolin-3-yl)ethan-1-one]	> 2000	> 2000	> 10000	> 2000	> 10000	> 2000	> 2000	> 2000	> 2000	> 10	> 2000
CC(=O)c1c([S+]([O-])Cc2ccccc2)nc2c(Br)ccc(Cl)c2c1O (stereo not shown) [Compound 53, 1-(2-(benzylsulfinyl)-8-bromo-5-chloro-4-hydroxyquinolin-3-yl)ethan-1-one]	> 2000	> 2000	> 10000	> 2000	> 10000	> 2000	> 2000	> 2000	> 2000	> 10	> 2000
CC(=O)c1c(S(=O)(=O)Cc2ccccc2)nc2c(Br)ccc(Cl)c2c1O [Compound 54, 1-(2-(benzylsulfonyl)-8-bromo-5-chloro-4-hydroxyquinolin-3-yl)ethan-1-one]	> 2000	> 2000	> 10000	> 2000	> 10000	> 2000	> 2000	> 2000	> 2000	> 10	> 2000
CC(=O)c1c([S+]([O-])Cc2ccccc2C#N)[nH]c2c(Br)ccc(Cl)c2c1=O (stereo not shown) [Compound 58, 2-(((3-acetyl-8-bromo-5-chloro-4-oxo-1,4-dihydroquinolin-2-yl)sulfinyl)methyl)benzonitrile]	> 2000	> 2000	> 10000	> 2000	> 10000	> 2000	> 2000	> 2000	620	> 10	> 2000
COCSc1[nH]c2c(Br)ccc(Cl)c2c(=O)c1C(C)=O [Compound 61, 3-acetyl-8-bromo-5-chloro-2-((methoxymethyl)thio)quinolin-4(1H)-one]	> 2000	> 2000	> 10000	> 2000	> 10000	> 2000	> 2000	> 2000	> 2000	> 10	> 2000
CC(=O)c1c(S)[nH]c2c(Br)ccc(Cl)c2c1=O [Compound 62, 3-acetyl-8-bromo-5-chloro-2-mercaptoquinolin-4(1H)-one]	> 2000	> 2000	> 10000	> 2000	> 10000	> 2000	> 2000	> 2000	> 2000	> 10	> 2000
CC(=O)c1c([S+]([O-])Cc2ccc(C(=O)c3ccccc3)cc2)[nH]c2c(Br)ccc(Cl)c2c1=O (stereo not shown) [Compound 63, 3-acetyl-2-((4-benzoylbenzyl)sulfinyl)-8-bromo-5-chloroquinolin-4(1H)-one]	> 2000	> 2000	> 10000	> 2000	> 10000	> 2000	> 2000	> 2000	> 2000	> 10	> 2000
CC(=O)c1c([S+]([O-])CC#N)[nH]c2c(Br)ccc(Cl)c2c1=O (stereo not shown) [Compound 65, 2-((3-acetyl-8-bromo-5-chloro-4-oxo-1,4-dihydroquinolin-2-yl)sulfinyl)acetonitrile]	> 2000	> 2000	> 10000	> 2000	> 10000	> 2000	> 2000	> 2000	> 2000	> 10	> 2000

The remaining lines, values ahead:

IC50 [1, 4] [nM]	IC50 [1, 5] [nM]	IC50 [1, 6] [nM]	IC50 [1, 7] [nM]	IC50 [1, 8] [nM]	IC50 [1, 9] [nM]	IC50 [1, 10] [nM]	IC50 [1, 11] [nM]	IC50 [1, 12] [nM]	IC50 [2] [µM]	IC50 [3] [nM]	Compound
> 2000	> 2000	> 10000	> 2000	> 10000	> 2000	> 2000	> 2000	> 2000	> 10	> 2000	CC(=O)c1c(SCC#N)[nH]c2c(Br)ccc(Cl)c2c1=O [Compound 66, 2-((3-acetyl-8-bromo-5-chloro-4-oxo-1,4-dihydroquinolin-2-yl)thio)acetonitrile]
> 2000	> 2000	> 10000	> 2000	> 10000	> 2000	> 2000	> 2000	> 2000	> 10	> 2000	CC(=O)c1c(S/C=C\C(=O)O)[nH]c2c(Br)ccc(Cl)c2c1=O [Compound 67, (Z)-3-((3-acetyl-8-bromo-5-chloro-4-oxo-1,4-dihydroquinolin-2-yl)thio)acrylic acid]
> 2000	> 2000	> 10000	> 2000	> 10000	> 2000	1220	> 2000	1230	> 2	> 2000	CC(=O)c1c([S+]([O-])Cc2ccc(S(F)(F)(F)(F)F)cc2)[nH]c2c(Br)ccc(Cl)c2c1=O (stereo not shown) [Compound 68, 3-acetyl-8-bromo-5-chloro-2-((4-(pentafluoro-16-sulfanyl)benzyl)sulfinyl)quinolin-4(1H)-one]
> 2000	> 2000	> 10000	> 2000	> 10000	> 2000	1370	> 2000	1450	> 10	> 2000	CC(=O)c1c([S+]([O-])Cc2ccc(S(F)(F)(F)(F)F)cc2F)[nH]c2c(Br)ccc(Cl)c2c1=O (stereo not shown) [Compound 69, 3-acetyl-8-bromo-5-chloro-2-((2-fluoro-4-(pentafluoro-16-sulfanyl)benzyl)sulfinyl)quinolin-4(1H)-one]
> 2000	> 2000	> 10000	> 2000	> 10000	> 2000	> 2000	> 2000	1440	> 10	> 2000	CC(=O)c1c([S+]([O-])Cc2cccc(S(F)(F)(F)(F)F)c2)[nH]c2c(Br)ccc(Cl)c2c1=O (stereo not shown) [Compound 77, 3-acetyl-8-bromo-5-chloro-2-((3-(pentafluoro--sulfanyl)benzyl)sulfinyl)quinolin-4(1H)-one]
> 2000	> 2000	> 10000	> 2000	> 10000	> 2000	> 2000	> 2000	> 2000	> 10	> 2000	CC(=O)c1c([S+]([O-])Cc2ccc(SC(F)(F)F)cc2)[nH]c2c(Cl)ccc(Cl)c2c1=O (stereo not shown) [Compound 79, 3-acetyl-5,8-dichloro-2-((4-((trifluoromethyl)thio)benzyl)sulfinyl)quinolin-4(1H)-one]
> 2000	> 2000	> 10000	> 2000	> 10000	> 2000	> 2000	> 2000	> 2000	> 10	> 2000	CC(=O)c1c([S+]([O-])Cc2ccc(S(F)(F)(F)(F)F)cc2)[nH]c2c(F)ccc(F)c2c1=O (stereo not shown) [Compound 80, 3-acetyl-5,8-difluoro-2-((4-(pentafluoro--sulfanyl)benzyl)sulfinyl)quinolin-4(1H)-one]
> 2000	> 2000	> 10000	> 2000	> 10000	> 2000	> 2000	> 2000	> 2000	> 10	> 2000	CC(=O)c1c([S+]([O-])Cc2ccc(C(F)(F)F)o2)[nH]c2c(F)ccc(F)c2c1=O (stereo not shown) [Compound 81, 3-acetyl-5,8-difluoro-2-(((5-(trifluoromethyl)furan-2-yl)methyl)sulfinyl)quinolin-4(1H)-one]
